Measurements as given in ChEMBL document CHEMBL5260850, “The exploration of aza-quinolines as hematopoietic prostaglandin D synthase (H-PGDS) inhibitors with low brain exposure” (Bioorg Med Chem, 2020).
pEC50, pIC50: −log10 of the molar value. ≈ marks a conversion by molar mass, not a printed value.

How the values were obtained:
[1] = molecular target: Hematopoietic prostaglandin D synthase (Homo sapiens, UniProt O60760); assay: Inhibition of human H-PGDS expressed in Escherichia coli BL21 DE3 cells assessed as reduction in PGD2 production using PGH2 as substrate by RapidFire High Throughput Mass spectrometry
[2] = molecular target: T1, Hematopoietic prostaglandin D synthase (Rattus norvegicus, UniProt O35543); assay: Inhibition of H-PGDS in rat RBL cells assessed as reduction in A23187-induced PGD2 production pretreated for 30 mins followed by A23187 addition for 30 mins by RapidFire Mass spectrometry; assay type: cell-based
T1 sequence (O35543 whole entry): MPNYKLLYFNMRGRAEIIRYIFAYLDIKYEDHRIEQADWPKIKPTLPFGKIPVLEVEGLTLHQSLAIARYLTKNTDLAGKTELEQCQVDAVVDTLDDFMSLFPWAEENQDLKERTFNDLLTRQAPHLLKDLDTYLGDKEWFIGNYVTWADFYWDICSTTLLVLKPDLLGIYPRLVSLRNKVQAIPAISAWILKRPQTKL

[3] = Half life in mouse liver microsomes pretreated for 5 mins followed by incubation with NADP for 30 secs and measured upto 45 mins by LC-MS/MS analysis; assay type: ADME, Microsome; settings: time 3030 sec
[4] = Dose normalized AUC in mouse at 3 mg/kg, po; assay type: ADME, organism-based; set-up: unit not given here; settings: in vivo
[5] = Solubility of the compound in FaSSIF at pH 6.5 measured after 4 hrs by HPLC-UV analysis; assay type: ADME
[6] = Apparent permeability, Papp of the compound at pH 7.4 incubated for 3 hrs by AMP based liquid chromatography; assay type: ADME; settings: not told
[7] = molecular target: Albumin (Homo sapiens, UniProt P02768); assay: Protein binding in human serum albumin by HPLC analysis; assay type: ADME, cell-free; settings: read-out: PB (converted)
Albumin, sequence (P02768 whole entry): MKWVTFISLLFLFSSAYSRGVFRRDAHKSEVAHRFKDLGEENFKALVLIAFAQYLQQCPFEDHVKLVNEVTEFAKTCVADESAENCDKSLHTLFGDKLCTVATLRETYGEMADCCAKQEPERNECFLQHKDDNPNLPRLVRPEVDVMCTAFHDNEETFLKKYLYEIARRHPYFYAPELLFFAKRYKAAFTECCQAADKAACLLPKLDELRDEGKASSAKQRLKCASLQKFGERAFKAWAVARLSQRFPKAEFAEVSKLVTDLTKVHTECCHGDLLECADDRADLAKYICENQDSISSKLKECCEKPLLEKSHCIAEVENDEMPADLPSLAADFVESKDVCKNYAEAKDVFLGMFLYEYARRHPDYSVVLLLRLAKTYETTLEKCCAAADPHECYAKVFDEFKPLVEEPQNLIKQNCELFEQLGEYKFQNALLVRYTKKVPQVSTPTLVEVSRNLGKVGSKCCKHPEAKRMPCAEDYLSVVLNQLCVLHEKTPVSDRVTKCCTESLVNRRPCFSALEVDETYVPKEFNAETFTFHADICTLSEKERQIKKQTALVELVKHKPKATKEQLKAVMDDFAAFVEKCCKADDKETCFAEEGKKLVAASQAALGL

Hematopoietic prostaglandin D synthase (Homo sapiens, UniProt O60760), sequence (O60760 whole entry): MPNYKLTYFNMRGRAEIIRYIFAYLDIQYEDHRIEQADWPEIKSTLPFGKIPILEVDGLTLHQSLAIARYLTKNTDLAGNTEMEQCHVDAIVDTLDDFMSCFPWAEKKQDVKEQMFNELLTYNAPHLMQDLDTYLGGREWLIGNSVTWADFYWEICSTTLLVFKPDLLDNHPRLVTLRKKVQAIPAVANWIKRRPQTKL

C[C@H]1CCN1c1cc2ncc(C(=O)N[C@H]3CC[C@H](C(C)(C)O)CC3)cc2cn1
pIC50 [1]: 8.32 | pEC50 [2]: 7.30

C[C@H]1CCN1c1nc2ncc(C(=O)N[C@H]3CC[C@](C)(O)CC3)cc2cc1Cl
pIC50 [1]: 8.34 | pEC50 [2]: 8.43 | half-life [3]: > 3 h | AUC/dose [4]: 132 | solubility at 4 h [5]: 740 µg/mL (≈ 1900 µM) | Papp at 3 h [6]: 11 ×10⁻⁶ cm/s | fraction unbound [7]: 0.13

C[C@]1(O)C[C@@H](NC(=O)c2cnc3nc(N4CCC4)ccc3c2)C1
pIC50 [1]: 6.85 | pEC50 [2]: 4.77

C[C@H]1CCN1c1nc2ncc(C(=O)N[C@H]3CC[C@H](C(C)(C)O)CC3)cc2cc1Cl
pIC50 [1]: 8.42 | pEC50 [2]: 8.41

C[C@@H]1CCN1c1ccc2cc(C(=O)N[C@H]3CC[C@H](C(C)(C)O)CC3)cnc2n1
pIC50 [1]: 6.51 | pEC50 [2]: 5.52

C[C@]1(O)C[C@@H](NC(=O)c2cnc3nc(C4CC4)ccc3c2)C1
pIC50 [1]: 6.80 | pEC50 [2]: 5.89

O=C(N[C@H]1CCNC1=O)c1cnc2nc(C3CC3)ccc2c1
pIC50 [1]: 7.36 | pEC50 [2]: 6.19

C[C@]1(O)C[C@@H](NC(=O)c2cnc3cc(C4CC4)ncc3c2)C1
pIC50 [1]: 6.54 | pEC50 [2]: 6.04

CC(C)(O)[C@H]1C[C@H](NC(=O)c2cnc3cc(C4CC4)ncc3c2)C1
pIC50 [1]: 7.19 | pEC50 [2]: 6.55 | half-life [3]: > 3 h | AUC/dose [4]: 45.3 | solubility at 4 h [5]: 280 µg/mL (≈ 860 µM) | Papp at 3 h [6]: 13 ×10⁻⁶ cm/s | fraction unbound [7]: 0.24

C[C@H]1CCN1c1nc2ncc(C(=O)N[C@H]3C[C@@](C)(O)C3)cc2cc1Cl
pIC50 [1]: 8.30 | pEC50 [2]: > 8.60

COc1ccc2cc(C(=O)N[C@H]3CC[C@H](C(C)(C)O)CC3)ccc2c1
pIC50 [1]: 5.89 | pEC50 [2]: < 4.30

CC(C)(O)[C@H]1CC[C@H](NC(=O)c2cnc3nc(NCC(F)F)ccc3c2)CC1
pIC50 [1]: 6.82 | pEC50 [2]: 4.92

O=C(N[C@H]1CC[C@H](N[C@H](CO)C(F)(F)F)CC1)c1cnc2cc(C3CC3)ncc2c1
pIC50 [1]: 7.51 | pEC50 [2]: 6.51 | half-life [3]: > 3 h | AUC/dose [4]: 693 | solubility at 4 h [5]: 100 µg/mL (≈ 237 µM) | Papp at 3 h [6]: 18 ×10⁻⁶ cm/s

CC(N[C@H]1CC[C@H](NC(=O)c2cnc3nc(C4CC4)ccc3c2)CC1)C(F)F (mixture of isomers)
pIC50 [1]: 7.96 | pEC50 [2]: 7.55 | half-life [3]: > 3 h | AUC/dose [4]: 681 | solubility at 4 h [5]: > 1000 µg/mL | Papp at 3 h [6]: 17 ×10⁻⁶ cm/s | fraction unbound [7]: 0.18

CC(C)(O)[C@]12C[C@@](NC(=O)c3cnc4nc(C5CC5)ccc4c3)(C1)C2
pIC50 [1]: 7.77 | pEC50 [2]: 6.64 | half-life [3]: > 3 h | AUC/dose [4]: 285 | solubility at 4 h [5]: 400 µg/mL (≈ 1190 µM) | Papp at 3 h [6]: 3.4 ×10⁻⁶ cm/s | fraction unbound [7]: 0.31

C[C@H]1CCN1c1nc2ncc(C(=O)N[C@H]3CCNC3=O)cc2cc1Cl
pIC50 [1]: 8.29 | pEC50 [2]: 8.42 | half-life [3]: > 3 h | AUC/dose [4]: 86.2 | solubility at 4 h [5]: > 1000 µg/mL | Papp at 3 h [6]: < 0.3 ×10⁻⁶ cm/s | fraction unbound [7]: 0.19

O=C(N[C@H]1CCNC1=O)c1cnc2nc(N3CCC3)ccc2c1
pIC50 [1]: 7.15 | pEC50 [2]: 5.22

O=C(N[C@H]1CC[C@H](N2CC(F)(F)C2)CC1)c1cnc2nc(C3CC3)ccc2c1
pIC50 [1]: 7.85 | pEC50 [2]: 7.30

CC(C)(O)[C@H]1CC2(C[C@H](NC(=O)c3cnc4nc(C5CC5)ccc4c3)C2)C1 (stereo partly specified)
pIC50 [1]: 8.41 | pEC50 [2]: 7.49 | half-life [3]: > 3 h | AUC/dose [4]: 477 | solubility at 4 h [5]: 35 µg/mL (≈ 95.8 µM) | Papp at 3 h [6]: 4.5 ×10⁻⁶ cm/s | fraction unbound [7]: 0.14

O=C(N[C@H]1CC[C@H](N2CC(F)C2)CC1)c1cnc2cc(C3CC3)ncc2c1
pIC50 [1]: 7.46 | pEC50 [2]: 6.55 | half-life [3]: > 3 h | AUC/dose [4]: 358 | solubility at 4 h [5]: > 1000 µg/mL | Papp at 3 h [6]: 27 ×10⁻⁶ cm/s

CC(C)c1ccc2cc(C(=O)N[C@H]3CC[C@H](C(C)(C)O)CC3)cnc2n1
pIC50 [1]: 8.07 | pEC50 [2]: 7.19

CC(C)(O)[C@H]1C[C@H](NC(=O)c2cnc3nc(C4CC4)ccc3c2)C1
pIC50 [1]: 7.44 | pEC50 [2]: 6.55 | half-life [3]: > 3 h | AUC/dose [4]: 77.5 | solubility at 4 h [5]: 100 µg/mL (≈ 307 µM) | fraction unbound [7]: 0.26

CC(C)(O)[C@H]1CC[C@H](NC(=O)c2cnc3nc(C4CCC4)ccc3c2)CC1
pIC50 [1]: 8.00 | pEC50 [2]: 6.92

C[C@H]1CCN1c1nc2ncc(C(=O)N[C@H]3C[C@](C)(O)C3)cc2cc1Cl
pIC50 [1]: 8.30 | pEC50 [2]: 8.33

CC(C)(O)[C@H]1CC[C@H](NC(=O)c2cnc3nc(N4CCC4)c(Cl)cc3c2)CC1
pIC50 [1]: 8.62 | pEC50 [2]: 8.41

CC(C)(O)C1CC2(CC(NC(=O)c3cnc4nc(C5CC5)ccc4c3)C2)C1 (stereo unspecified)
pIC50 [1]: 8.31 | pEC50 ([2]; rbl): 7.54 | half-life [3]: > 3 h | AUC/dose [4]: 441 | solubility at 4 h [5]: 34 µg/mL (≈ 93 µM) | Papp at 3 h [6]: 5.4 ×10⁻⁶ cm/s | fraction unbound [7]: 0.14

CC(C)(O)[C@H]1CC[C@H](NC(=O)c2cnc3nc(NCC(F)(F)F)ccc3c2)CC1
pIC50 [1]: 6.16 | pEC50 [2]: 5.02

COc1nc2ncc(C(=O)N[C@H]3CC[C@H](C(C)(C)O)CC3)cc2cc1Cl
pIC50 [1]: 8.18 | pEC50 [2]: 7.66

CC(C)(O)[C@H]1CC[C@H](NC(=O)c2cnc3nc(N4CCC4)ncc3c2)CC1
pIC50 [1]: 7.92 | pEC50 [2]: 6.47 | half-life [3]: 2.43 h | AUC/dose [4]: 23.4 | solubility at 4 h [5]: 210 µg/mL (≈ 568 µM) | Papp at 3 h [6]: < 1 ×10⁻⁶ cm/s | fraction unbound [7]: 0.46

C[C@]1(O)C[C@H](NC(=O)c2cnc3nc(C4CC4)ccc3c2)C1
pIC50 [1]: 6.52 | pEC50 [2]: 5.13

CC(C)(O)[C@H]1CC[C@H](NC(=O)c2cnc3nc(OCC(F)(F)F)ccc3c2)CC1
pIC50 [1]: 6.46 | pEC50 [2]: 5.96

C[C@H]1CCN1c1cc2ncc(C(=O)N[C@H]3CCNC3=O)cc2cn1
pIC50 [1]: 7.43 | pEC50 [2]: 6.59 | half-life [3]: > 3 h | AUC/dose [4]: 715 | solubility at 4 h [5]: 630 µg/mL (≈ 1940 µM) | Papp at 3 h [6]: 1.4 ×10⁻⁶ cm/s | fraction unbound [7]: 0.44

O=C(N[C@H]1CC[C@H](N2CC(F)(F)C2)CC1)c1cnc2cc(C3CC3)ncc2c1
pIC50 [1]: 7.85 | pEC50 [2]: 7.06

CC(C)(O)[C@H]1CC[C@H](NC(=O)c2cnc3nc(C4CC4)c(Cl)cc3c2)CC1
pIC50 [1]: 8.33 | pEC50 [2]: 8.28

C[C@]1(O)C[C@H](NC(=O)c2cnc3nc(C4CC4)c(Cl)cc3c2)C1
pIC50 [1]: 8.19 | pEC50 [2]: 6.72 | half-life [3]: > 3 h | AUC/dose [4]: 362 | solubility at 4 h [5]: 700 µg/mL (≈ 2110 µM) | Papp at 3 h [6]: 15 ×10⁻⁶ cm/s | fraction unbound [7]: 0.14

C[C@@H]1CCN1c1cc2ncc(C(=O)N[C@H]3CC[C@H](C(C)(C)O)CC3)cc2cn1
pIC50 [1]: 6.80 | pEC50 [2]: 6.35

CC(C)(O)[C@H]1CC[C@H](NC(=O)c2cnc3nc(C4CC4)ncc3c2)CC1
pIC50 [1]: 8.19 | pEC50 [2]: 6.77 | half-life [3]: > 3 h | AUC/dose [4]: 204 | Papp at 3 h [6]: 2.2 ×10⁻⁶ cm/s | fraction unbound [7]: 0.36

CC(C)(O)[C@H]1CC[C@H](NC(=O)c2cnc3nc(N4CC(F)C4)ccc3c2)CC1
pIC50 [1]: 7.89 | pEC50 [2]: 6.00

CC(C)(O)[C@]12C[C@@](NC(=O)c3cnc4cc(C5CC5)ncc4c3)(C1)C2
pIC50 [1]: 7.42 | pEC50 [2]: 6.68

C[C@H]1CCN1c1nc2ncc(C(=O)N[C@H]3C[C@H](C(C)(C)O)C3)cc2cc1Cl
pIC50 [1]: 8.51 | pEC50 [2]: > 8.60
